Counter-ions that a name gives are not always drawn.
Assays:
MCF-7 cells = assay: MCF-7 proliferation assay (Alamar blue); assay type: cell-based; details: Homo sapiens, MCF7, 72 h incubation, read-out: IC50 for inhibition of cell growth
Experimental: The following assay was used to determine the ability of test compounds to inhibit cell growth.
The following protocol was used: • 1) MCF-7 cells were seeded in 96-well plates at 5000 cells per well and allowed to adhere overnight prior to addition of compound or vehicle control. • 2) Test compounds were prepared from 10 mM DMSO stocks to give a final concentration range of 100 μM, 30 μM, 10 μM, 3 μM, 1 μM, 0.3 μM, 0.1 μM, 0.03 μM, 0.01 μM and vehicle control. The DMSO content was constant at 1%. • 3) Test compounds were incubated with the cells for 72 h at 37° C. 5% CO2 in a humidified atmosphere. • 4) Alamar blue 10% (v/v) was then added and incubated for a further 6 h, and fluorescent product detected using the BMG FLUOstar plate reader. • 5) Data were analysed using a 4-parameter logistic equation in Graph Pad Prism.

p70S6K (h) = p70S6K (h) (Homo sapiens, UniProt P23443); assay: Determination of p70S6 inhibitory activity (radiometric 33P-ATP filter assay); assay type: biochemical; details: 40 min at room temperature, read-out: IC50 against P70S6 kinase
Experimental: The ability of compounds of the invention to inhibit P70S6 kinase was determined using the protocol below.
• 20 mM MOPS, 1 mM EDTA, 0.01% Brij-35, 5% Glycerol, 0.1% b-mercaptoethanol, 1 mg/mL BSA Method: • p70S6K (h)
In a final reaction volume of 25 μL, p70S6K (h) (5-10 mU) is incubated with 8 mM MOPS pH 7.0, 0.2 mM EDTA, 100 μM KKRNRTLTV, 10 mM Mg acetate and [γ-33P-ATP] (specific activity approx. 500 cpm/pmol, concentration as required). The reaction is initiated by the addition of the MgATP mix. After incubation for 40 minutes at room temperature, the reaction is stopped by the addition of 5 μL of a 3% phosphoric acid solution. 10 μL of the reaction mixture is then spotted onto a P30 filtermat and washed three times for 5 minutes in 75 mM phosphoric acid and once in methanol prior to drying and scintillation counting.

[1] = system: phosphorylation of S6 Ser235/236 in MCF-7 cells; assay: Inhibition of P70S6K activity in whole cells: phospho-S6 ELISA in MCF-7 cells; assay type: cell-based; details: Homo sapiens, MCF7, 2 h incubation, 1% FBS
Experimental: The following assay provides IC50 values for inhibition of P70S6K activity in a whole cell assay by determining effects on the phosphorylation of S6^Ser235/236 in MCF-7 cells by ELISA.
The following protocol was used: • 1) MCF-7 cells were seeded in 96-well plates at a density of 7×10^3 cells per well and allowed to adhere for 6 h in media containing 10% FBS. • 2) The full serum media was replaced and cells incubated overnight in media containing 1% FBS, prior to addition of test compounds. • 3) Test compounds were prepared from 10 mM or 5 mM (BEZ-235) DMSO stocks to give final concentration ranges as indicated on graphs. DMSO was constant at a final concentration of 1%. • 4) Test compounds were incubated with cells in duplicate for 2 h at 37° C./5% CO2 in a humidified atmosphere. • 5) The media was removed and cells were lysed by freeze-thawing in cell lysis buffer. • 6) Detection of phosphorylated S6Ser235/236 was then carried out using a PathScan ELISA kit (Cell Signaling Technology #7205). • 7) Lysates were diluted 1:1 with sample diluent before being applied to wells coated with an antibody against phosphorylated-S6 protein. • 8) The ELISA was then performed as stated in the manufacturers' instructions. • 9) The raw data were normalised to control values and analysed using a 4-parameter logistic equation in GraphPad Prism.

p70S6K (h), sequence (P23443 whole entry): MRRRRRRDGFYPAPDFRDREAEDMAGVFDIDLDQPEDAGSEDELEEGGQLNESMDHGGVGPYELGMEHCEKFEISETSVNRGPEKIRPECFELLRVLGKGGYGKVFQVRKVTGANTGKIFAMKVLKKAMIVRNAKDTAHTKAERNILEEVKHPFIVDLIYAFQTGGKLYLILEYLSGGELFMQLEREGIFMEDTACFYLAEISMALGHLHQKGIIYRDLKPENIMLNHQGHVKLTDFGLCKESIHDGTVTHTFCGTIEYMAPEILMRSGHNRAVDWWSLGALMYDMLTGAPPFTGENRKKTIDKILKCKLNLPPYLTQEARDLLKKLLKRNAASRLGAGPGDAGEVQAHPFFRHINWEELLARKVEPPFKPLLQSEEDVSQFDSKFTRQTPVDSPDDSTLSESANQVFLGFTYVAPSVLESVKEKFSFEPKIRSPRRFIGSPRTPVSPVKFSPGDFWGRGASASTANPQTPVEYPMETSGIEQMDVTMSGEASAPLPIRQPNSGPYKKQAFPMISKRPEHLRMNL

Row | SMILES | IC50 (MCF-7 cells) | IC50 (p70S6K (h)) | IC50 [1]
1 | c1ccc(CNc2cnc3cc(-c4cn[nH]c4)ccc3n2)cc1 [Example 1, Benzyl-[6-(1H-pyrazol-4-yl)-quinoxalin-2-yl]-amine] | < 10 µM | < 0.1 µM | < 5 µM
2 | CN(Cc1ccccc1)c1cnc2cc(-c3cn[nH]c3)ccc2n1 [Example 2, Benzyl-methyl-[6-(1H-pyrazol-4-yl)-quinoxalin-2-yl]-amine hydrochloride] | < 20 µM | < 0.1 µM | < 5 µM
3 | OCCN(Cc1ccccc1)c1cnc2cc(-c3cn[nH]c3)ccc2n1 [Example 3, 2-{Benzyl-[6-(1H-pyrazol-4-yl)-quinoxalin-2-yl]-amino}-ethanol] | < 20 µM | < 0.1 µM | < 5 µM
4 | CN1CCN(c2cccc(CNc3cnc4cc(-c5cn[nH]c5)ccc4n3)c2)CC1 [Example 6, [3-(4-Methyl-piperazin-1-yl)-benzyl]-[6-(1H-pyrazol-4-yl)-quinoxalin-2-yl]-amine hydrochloride] | < 20 µM | < 1 µM | < 5 µM
5 | c1cc(CNc2cnc3cc(-c4cn[nH]c4)ccc3n2)cc(N2CCOCC2)c1 [Example 7, (3-Morpholin-4-yl-benzyl)-[6-(1H-pyrazol-4-yl)-quinoxalin-2-yl]-amine hydrochloride] | < 20 µM | < 5 µM | < 5 µM
6 | Clc1ccc(CNc2cnc3cc(-c4cn[nH]c4)ccc3n2)cc1 [Example 8, (4-Chloro-benzyl)-[6-(1H-pyrazol-4-yl)-quinoxalin-2-yl]-amine] | < 20 µM | < 0.1 µM | < 5 µM
7 | Clc1cccc(CNc2cnc3cc(-c4cn[nH]c4)ccc3n2)c1 [Example 9, (3-Chloro-benzyl)-[6-(1H-pyrazol-4-yl)-quinoxalin-2-yl]-amine] | < 20 µM | < 0.1 µM | < 1 µM
8 | Fc1ccc(CNc2cnc3cc(-c4cn[nH]c4)ccc3n2)cc1 [Example 11, (4-Fluoro-benzyl)-[6-(1H-pyrazol-4-yl)-quinoxalin-2-yl]-amine hydrochloride] | < 10 µM | < 0.1 µM | < 5 µM
9 | Fc1cccc(CNc2cnc3cc(-c4cn[nH]c4)ccc3n2)c1 [Example 12, (3-Fluoro-benzyl)-[6-(1H-pyrazol-4-yl)-quinoxalin-2-yl]-amine hydrochloride] | < 10 µM | < 0.1 µM | < 5 µM
10 | Fc1ccccc1CNc1cnc2cc(-c3cn[nH]c3)ccc2n1 [Example 13, (2-Fluoro-benzyl)-[6-(1H-pyrazol-4-yl)-quinoxalin-2-yl]-amine hydrochloride] | < 20 µM | < 1 µM | –
11 | COc1ccc(CNc2cnc3cc(-c4cn[nH]c4)ccc3n2)cc1 [Example 17, (4-Methoxy-benzyl)-[6-(1H-pyrazol-4-yl)-quinoxalin-2-yl]-amine] | < 10 µM | < 1 µM | < 5 µM
12 | COc1cccc(CNc2cnc3cc(-c4cn[nH]c4)ccc3n2)c1 [Example 18, (3-Methoxy-benzyl)-[6-(1H-pyrazol-4-yl)-quinoxalin-2-yl]-amine] | < 10 µM | < 0.1 µM | < 1 µM
13 | CN(Cc1ccc(F)cc1)c1cnc2cc(-c3cn[nH]c3)ccc2n1 [Example 21, (4-Fluoro-benzyl)-methyl-[6-(1H-pyrazol-4-yl)-quinoxalin-2-yl]-amine] | < 50 µM | < 0.1 µM | < 5 µM
14 | c1ccc(CCNc2cnc3cc(-c4cn[nH]c4)ccc3n2)cc1 [Example 25, Phenethyl-[6-(1H-pyrazol-4-yl)-quinoxalin-2-yl]-amine hydrochloride] | < 20 µM | < 0.1 µM | < 5 µM
15 | CCN(Cc1ccccc1)c1cnc2cc(-c3cn[nH]c3)ccc2n1 [Example 26, Benzyl-ethyl-[6-(1H-pyrazol-4-yl)-quinoxalin-2-yl]-amine] | < 50 µM | < 0.1 µM | –
16 | COc1cccc(CN(C)c2cnc3cc(-c4cn[nH]c4)ccc3n2)c1 [Example 27, (3-Methoxy-benzyl)-methyl-[6-(1H-pyrazol-4-yl)-quinoxalin-2-yl]-amine] | < 50 µM | < 0.1 µM | < 1 µM
17 | CN(Cc1cccc(F)c1)c1cnc2cc(-c3cn[nH]c3)ccc2n1 [Example 28, (3-Fluoro-benzyl)-methyl-[6-(1H-pyrazol-4-yl)-quinoxalin-2-yl]-amine] | < 10 µM | < 0.1 µM | < 1 µM
18 | CN(C)CCOc1cccc(CNc2cnc3cc(-c4cn[nH]c4)ccc3n2)c1 [Example 31, [3-(2-Dimethylamino-ethoxy)-benzyl]-[6-(1H-pyrazol-4-yl)-quinoxalin-2-yl]-amine hydrochloride] | < 20 µM | < 5 µM | –
19 | Fc1ccc(CNc2cnc3cc(-c4cn[nH]c4)ccc3n2)cc1F [Example 32, (3,4-Difluoro-benzyl)-[6-(1H-pyrazol-4-yl)-quinoxalin-2-yl]-amine] | < 50 µM | < 0.1 µM | < 5 µM
20 | C[C@@H](Nc1cnc2cc(-c3cn[nH]c3)ccc2n1)c1ccccc1 [Example 33, ((R)-1-Phenyl-ethyl)-[6-(1H-pyrazol-4-yl)-quinoxalin-2-yl]-amine] | < 20 µM | < 0.1 µM | < 1 µM
21 | c1cc(CNc2cnc3cc(-c4cn[nH]c4)ccc3n2)cs1 [Example 38, [6-(1H-Pyrazol-4-yl)-quinoxalin-2-yl]-thiophen-3-ylmethyl-amine] | < 10 µM | < 0.1 µM | –
22 | Cc1cccc(CNc2cnc3cc(-c4cn[nH]c4)ccc3n2)c1 [Example 41, (3-Methyl-benzyl)-[6-(1H-pyrazol-4-yl)-quinoxalin-2-yl]-amine] | < 10 µM | < 0.1 µM | < 1 µM
23 | COc1cccc([C@@H](C)Nc2cnc3cc(-c4cn[nH]c4)ccc3n2)c1 [Example 50, [(R)-1-(3-Methoxy-phenyl)-ethyl]-[6-(1H-pyrazol-4-yl)-quinoxalin-2-yl]-amine hydrochloride] | < 10 µM | < 0.1 µM | < 1 µM

— patent publication US8716473B2, “Substituted benzotriazines and quinoxalines as inhibitors of P7OS6 kinase” (Sentinel Oncology Limited, priority 2009, dated 2014)
